Results taken from patent US9951066B2, “Compositions, uses and methods for making them” (Pimera, Inc., priority 2014, dated 2018).

Each compound was assayed on A375 cell line (assay: Alamar Blue cell viability assay, A375). Conditions: Homo sapiens, A-375, 96 h, read-out: Pharmaceutical activity in A375 cell line IC50.
Assay type: cell-based
Method: Inhibitory activity on cell proliferation of representative compounds of the invention was determined using an Alamar Blue cell viability assay as described hereafter.
3000 cancer cells in 100 uL of cell culture media were plated in each well of a 96-well clear bottom, black wall cell culture-pretreated plate.
The next day compounds are serially diluted (3-fold in cell culture media) across a 96-well polypropylene mother plate from row A to row F, to yield 6 concentrations (10 uM, 3.3 uM, 1.1 uM, 370 nM, 124 nM and 41 nM) for each test compound. Rows G and H contain only DMSO.
Once titrations are made, the media in plates with cells were disposed and 100 μL of drug dilutions are transferred to plates with cells. After a ninety six-hour incubation at 37° C., 10 uL of resazurin solution from Alamar Blue Cell Viability kit (Invitrogen, Carlsbad, Calif.) was added to the media and cells were incubated at 37° C. for three more hours. At the end of this incubation the production of resofurin was measured using Spectrmax M2 microplate reader (Molecular Devices, Sunnyvale, Calif.)

Structure (SMILES) | IC50 [µM]
CC(C)NC(=O)c1cc2ccc(N3CCN(C)CC3)nc2n2c1nc1ccccc12 [Compound 5D] | 5 to 10
CC(C)NC(=O)c1cc2ccc(N3CCCNCC3)nc2n2c1nc1ccccc12 [Compound 9B, 2-[1,4]Diazepan-1-yl-1,7,11b-triaza-benzo[c]fluorene-6-carboxylic acid isopropylamide] | 1 to 5

Same assay, conditions: Homo sapiens, A-375; Table 4; cell proliferation inhibition, Alamar Blue, 96 h incubation; read-out: Pharmaceutical activity in A375 cell line IC50

IC50 [µM] | Structure (SMILES)
< 1 | CN1CCCN(c2ccc3cc(C#N)c4nc5ccccc5n4c3n2)CC1 [Compound 3C, 2-(4-Methyl-[1,4]diazepan-1-yl)-1,7,11b-triaza-benzo[c]fluorene-6-carbonitrile]
< 1 | N#Cc1cc2ccc(N3CCCNCC3)nc2n2c1nc1ccccc12 [Compound 3D, 2-[1,4]Diazepan-1-yl-1,7,11b-triaza-benzo[c]fluorene-6-carbonitrile]
1 to 5 | N#Cc1cc2ccc(NCCN3CCOCC3)nc2n2c1nc1ccccc12 [Compound 3E, 2-(2-Morpholin-4-yl-ethylamino)-1,7,11b-triaza-benzo[c]fluorene-6-carbonitrile]
< 1 | CN(C)C1CCN(c2ccc3cc(C#N)c4nc5ccccc5n4c3n2)C1 (centres unmarked) [Compound 3F, 2-(3-Dimethylamino-pyrrolidin-1-yl)-1,7,11b-triaza-benzo[c]fluorene-6-carbonitrile]
1 to 5 | N#Cc1cc2ccc(NCCn3ccnc3)nc2n2c1nc1ccccc12 [Compound 3G, 2-(2-Imidazol-1-yl-ethylamino)-1,7,11b-triaza-benzo[c]fluorene-6-carbonitrile]
< 1 | CN1CCN(c2ccc3cc(C#N)c4nc5ccccc5n4c3n2)CC1 [Compound 3H, 2-(4-Methyl-piperazin-1-yl)-1,7,11b-triaza-benzo[c]fluorene-6-carbonitrile]
1 to 5 | COCCNc1ccc2cc(C#N)c3nc4ccccc4n3c2n1 [Compound 3I, 2-(2-Methoxy-ethylamino)-1,7,11b-triaza-benzo[c]fluorene-6-carbonitrile]
5 to 10 | CN1CCCN(c2ccc3cc(C(=O)Nc4nccs4)c4nc5ccccc5n4c3n2)CC1 [Compound 4A]
< 1 | CN1CCCN(c2ccc3cc(C(=O)NC#N)c4nc5ccccc5n4c3n2)CC1 [Compound 4C]
< 1 | CNNC(=O)c1cc2ccc(N3CCCN(C)CC3)nc2n2c1nc1ccccc12 [Compound 4D, 2-(4-Methyl-[1,4]diazepan-1-yl)-1,7,11b-triaza-benzo[c]fluorene-6-carboxylic acid N′-methyl-hydrazide]
1 to 5 | [2H]C([2H])([2H])NC(=O)c1cc2ccc(N3CCCN(C)CC3)nc2n2c1nc1ccccc12 [Compound 4E, 2-(4-Methyl-[1,4]diazepan-1-yl)-1,7,11b-triaza-benzo[c]fluorene-6-carboxylic acid methyl-d3-amide]
< 1 | CONC(=O)c1cc2ccc(N3CCCN(C)CC3)nc2n2c1nc1ccccc12 [Compound 4F, 2-(4-Methyl-[1,4]diazepan-1-yl)-1,7,11b-triaza-benzo[c]fluorene-6-carboxylic acid methoxy-amide]
5 to 10 | CN1CCN(c2ccc3cc(C(=O)NN)c4nc5ccccc5n4c3n2)CC1 [Compound 5B]
1 to 5 | CNC(=O)c1cc2ccc(N3CCN(C)CC3)nc2n2c1nc1ccccc12 [Compound 5C]
1 to 5 | CN1CCN(c2ccc3cc(C(=O)NC4CC4)c4nc5ccccc5n4c3n2)CC1 [Compound 5E, 2-(4-Methyl-piperazin-1-yl)-1,7,11b-triaza-benzo[c]fluorene-6-carboxylic acid cyclopropylamide]
5 to 10 | CNC(=O)c1cc2ccc(N3CCC[N+](C)(C)CC3)nc2n2c1nc1ccccc12 [Compound 6A, 1,1-Dimethyl-4-(6-methylcarbamoyl-1,7,11b-triaza-benzo[c]fluoren-2-yl)-[1,4]diazepan-1-ium; iodide]
> 10 | O=C(O)c1cc2cc(F)cnc2n2c1nc1ccccc12 [Compound 7B, 3-Fluoro-1,7,11b-triaza-benzo[c]fluorene-6-carboxylic acid]

IC50 [µM] | Structure (SMILES)
> 10 | CN1CCCN(C(=O)c2cc3cc(F)cnc3n3c2nc2ccccc23)CC1 [Compound 7C, (3-Fluoro-1,7,11b-triaza-benzo[c]fluoren-6-yl)-(4-methyl-[1,4]diazepan-1-yl)-methanone]
> 10 | O=C(c1cc2cc(F)cnc2n2c1nc1ccccc12)N1CCCNCC1 [Compound 7D, [1,4]Diazepan-1-yl-(3-fluoro-1,7,11b-triaza-benzo[c]fluoren-6-yl)-methanone]
1 to 5 | CN(C)CCNC(=O)c1cc2cc(F)cnc2n2c1nc1ccccc12 [Compound 7F, 3-Fluoro-1,7,11b-triaza-benzo[c]fluorene-6-carboxylic acid (2-dimethylamino-ethyl)-amide]
> 10 | O=C(NCCN1CCOCC1)c1cc2cc(F)cnc2n2c1nc1ccccc12 [Compound 7G, 3-Fluoro-1,7,11b-triaza-benzo[c]fluorene-6-carboxylic acid (2-morpholin-4-yl-ethyl)-amide]
1 to 5 | O=C(NCCN1CCCC1)c1cc2cc(F)cnc2n2c1nc1ccccc12 [Compound 7I, 3-Fluoro-1,7,11b-triaza-benzo[c]fluorene-6-carboxylic acid (2-pyrrolidin-1-yl-ethyl)-amide]
< 1 | CNC(=O)c1cc2c(N3CCCN(C)CC3)ccnc2n2c1nc1ccccc12 [Compound 8B, 4-(4-Methyl-[1,4]diazepan-1-yl)-1,7,11b-triaza-benzo[c]fluorene-6-Carboxylic acid methylamide]
< 1 | CNC(=O)c1cc2c(N3C[C@@H](C)N[C@@H](C)C3)ccnc2n2c1nc1ccccc12 [Compound 8D]
< 1 | Cc1nnc(-c2cc3ccc(N4CCCN(C)CC4)nc3n3c2nc2ccccc23)o1 [Compound 10E, 2-(4-Methyl-[1,4]diazepan-1-yl)-6-(5-methyl-[1,3,4]oxadiazol-2-yl)-1,7,11b-triaza-benzo[c]fluorine]
5 to 10 | NNC(=O)c1cc2ccc(NCCN3CCOCC3)nc2n2c1nc1ccccc12 [Compound 11C, 2-(2-Morpholin-4-yl-ethylamino)-1,7,11b-triaza-benzo[c]fluorene-6-carboxylic acid hydrazide]
1 to 5 | CNC(=O)c1cc2ccc(NCCN3CCOCC3)nc2n2c1nc1ccccc12 [Compound 11D, 2-(2-Morpholin-4-yl-ethylamino)-1,7,11b-triaza-benzo[c]fluorene-6-carboxylic acid methylamide]
1 to 5 | CN(C)CCNc1ccc2cc(C(=O)NN)c3nc4ccccc4n3c2n1 [Compound 12B, 2-(2-Dimethylamino-ethylamino)-1,7,11b-triaza-benzo[c]fluorene-6-carboxylic acid hydrazide]
< 1 | CNC(=O)c1cc2ccc(NCCN(C)C)nc2n2c1nc1ccccc12 [Compound 12C, 2-(2-Dimethylamino-ethylamino)-1,7,11b-triaza-benzo[c]fluorene-6-carboxylic acid methylamide]
5 to 10 | CC(C)NC(=O)c1cc2cnccc2n2c1nc1ccccc12 [Compound 13C, 3,7,11b-Triaza-benzo[c]fluorene-6-carboxylic acid isopropylamide]
< 1 | CN(C)CCNC(=O)c1cc2cnccc2n2c1nc1ccccc12 [Compound 13D, 3,7,11b-Triaza-benzo[c]fluorene-6-carboxylic acid (2-dimethylamino-ethyl)-amide]
5 to 10 | COCCCNC(=O)c1cc2cnccc2n2c1nc1ccccc12 [Compound 13E, 3,7,11b-Triaza-benzo[c]fluorene-6-carboxylic acid (3-methoxy-propyl)-amide]
5 to 10 | O=C(NCCN1CCOCC1)c1cc2cnccc2n2c1nc1ccccc12 [Compound 13F, 3,7,11b-Triaza-benzo[c]fluorene-6-carboxylic acid (2-morpholin-4-yl-ethyl)-amide]
< 1 | O=C(NCCN1CCCC1)c1cc2cnccc2n2c1nc1ccccc12 [Compound 13G]

Same assay, conditions: Homo sapiens, A-375; cell proliferation inhibition, Alamar Blue, 96 h incubation; read-out: Pharmaceutical activity IC50 A375

IC50 [µM] | Structure (SMILES)
5 to 10 | CC(C)NC(=O)c1cc2ccc(N3CCCN(C)CC3)nc2n2c1nc1ccccc12 [Compound 2A, 2-(4-methyl-[1,4]diazepan-1-yl)-1,7,11b-triazabenzo[c]fluorene-6-carboxylic acid isopropylamide]
5 to 10 | CC(NC(=O)c1cc2ccc(N3CCCN(C)CC3)nc2n2c1nc1ccccc12)C1CC1 (centres unmarked) [Compound 2B, 2-(4-Methyl-[1,4]diazepan-1-yl)-1,7,11b-triazabenzo[c]fluorene-6-carboxylic acid (1-cyclopropylethyl)-amide]
1 to 5 | CN1CCCN(c2ccc3cc(C(=O)NC4CC4)c4nc5ccccc5n4c3n2)CC1 [Compound 2C, 2-(4-methyl-[1,4]diazepan-1-yl)-1,7,11b-triazabenzo[c]fluorene-6-carboxylic acid cyclopropylamide]
1 to 5 | CN1CCCN(c2ccc3cc(C(=O)NC4CCOCC4)c4nc5ccccc5n4c3n2)CC1 [Compound 2D, 2-(4-methyl-[1,4]diazepan-1-yl)-1,7,11b-triazabenzo[c]fluorene-6-carboxylic acid (tetrahydropyran-4-yl)-amide]
1 to 5 | CN1CCCN(c2ccc3cc(C(=O)NCC4(C)COC4)c4nc5ccccc5n4c3n2)CC1 [Compound 2F, 2-(4-Methyl-[1,4]diazepan-1-yl)-1,7,11b-triazabenzo[c]fluorene-6-carboxylic acid (3-methyloxetan-3-ylmethyl)-amide]
